Experimental findings from patent publication US20140134283A1, “Compositions and Methods for Affecting Mental State and Body Composition” (USPLABS. LLC, priority 2012, published 2014) are described below.

Entries after “also recorded” stand apart in the source; their conditions may differ.

Assay [1] deals with human subjects. Nature of the assay: Initial human study, two male subjects ingesting aegeline for 12-18 weeks, reported effects. The class given is in vivo. Conditions: for libido: male volunteers.
Assay [2] has as its system human subjects. Nature of the assay: Human study, six adult males ingesting 200-800 mg aegeline per day: effects reported by subjects. The assay is classed as in vivo. The source says:
In a separate study, the compound aegeline was orally administered to six human subjects. The volunteer subjects were all non-smoking males between the ages of 24-36.

For `COc1ccc(C(O)CNC(=O)/C=C/c2ccccc2)cc1` (stereo not shown) [aegeline, N-[2-hydroxy-2(4-methoxyphenyl)ethyl]-3-phenyl-2-propenamide], in the assay on human subjects [1] (daily dose of 80 mg), the effect on thermogenesis entry was “without a very noticeable effect; also recorded: not very noticeable”; the “mental stamina, focus, and mood” value is reported as “effective to increase or improve”. In addition, in the assay with human subjects [1] (daily dose of 120 mg), the “duration of effects on mental stamina, focus, and mood after effect onset” value lay in the range of 8 to 10 h; the “mental stamina, focus, and mood” value was “further increased or improved”; the thermogenic effect result was “noticeable but not very apparent; also recorded: noticeable”. Further, the “mental stamina, focus, energy level, mood and thermogenesis” value with human subjects [1] (dose increase to 150-180 mg) is on record as “further enhanced or increased”. For the same molecule, the libido result in the assay with human subjects [1] (daily dose of 150 mg) is listed as “increased libido; also recorded: effective to increase libido”. In the assay on human subjects [1] (daily doses lower than 150 mg), the libido result is on record as “not at the lower daily doses”. The reported effects entry with human subjects [1] (two male subjects, 20-60 mg per day) was “no immediate apparent effects”. Also, the “mental stamina, focus and concentration, energy level, and mood” value with human subjects [1] (two male subjects, 80-150 mg per day) was “increased or improved”. Moreover, in the assay with human subjects [2] (200 mg per day), the anabolic effects entry was “became apparent after extended use”, the thermogenic effect entry was “very apparent” and the “time of daily administration until anabolic effects became apparent” value is reported as “around 7 days”. Also, the libido entry in the assay on human subjects [2] (400 mg per day) is “very apparent and prolonged increase”. In the assay on human subjects [2] (daily dose of 200 mg), the effect on libido entry was “further increased”; the “effects on mental stamina, energy level, focus, and mood” value was “very apparent”. The anabolic effects entry in the assay with human subjects [2] (daily dose of 400 mg) is “immediately apparent”. Further, the “dose-dependency of effects on mental stamina, energy level, focus, and mood” value in the assay on human subjects [2] (doses above 400 mg per day) is given as “not readily observed”. Further, the “physical performance for exercise and strength training activities” value with human subjects [2] (one subject, daily dose of 800 mg) is reported as “improved physical performance”.
